Assays:
in vivo = conditions: male, Wistar, rat, whole blood, po, 10 mg
Protocol: (§1) Formulation A is an emulsion preconcentrate and formulation B is a microemulsion preconcentrate. 6 male Wistar rats of mean body weight of 300 g are used per form. One day before treatment, food is withdrawn from the rats but the rats are permitted free access to water. The rats are then anesthetized by intraperitoneal injection of 2×1 ml 20% urethane and a permanent catheter is inserted into the right vena jugularis to permit blood sampling. 500 ml/animal of the formulation is administered by gastric intubation 20 hours after the surgery. A total dose of 10 mg of drug per animal is administered. Blood samples of 0.7 ml are taken from the jugular catheter of each animal 15 minutes before drug administration and then 0.17, 0.5, 1, 1.5, 2, 3, 5 and 8 hours after drug administration. The samples are kept in heparinized tubes and are analysed by means of ELISA using microtitre plates coated with rapamycin specific antibodies. The animals are killed immediately after taking the last blood sample.

[1] = Pharmacokinetics in rats after gastric intubation, blood levels by ELISA with rapamycin specific antibodies; conditions: Example 3; rapamycin given in formulations A and B, 10 mg per rat, oral
Protocol: as §1

Cmax (in vivo): 2670 to 3400 ng/mL | absorption (result in words) [1]: well absorbed
Compound: CO[C@H]1C[C@@H]2CC[C@@H](C)[C@@](O)(O2)C(=O)C(=O)N2CCCC[C@H]2C(=O)O[C@H]([C@H](C)C[C@@H]2CC[C@@H](O)[C@H](OC)C2)CC(=O)[C@H](C)/C=C(\C)[C@@H](O)[C@@H](OC)C(=O)[C@H](C)C[C@H](C)/C=C/C=C/C=C/1C [rapamycin, Rapamycin]

Reference: patent US6565859B1, “Galenical formulations” (Novartis AG, priority 1993, dated 2003)
